Results from patent US20240067662A1, “KRAS INHIBITORS” (Bristol-Myers Squibb Company, priority 2022, published 2024).
pIC50: −log10 of the molar value.

target: GMPPNP-loaded KRAS G12C (Homo sapiens, UniProt P01116, G12C); experiment: KRAS G12C RAF Disruption Assay (HTRF); format: biochemical; conditions: recombinant GMPPNP-loaded KRAS G12C (5 nM), 20 min with compound; GST-RAF1 RBD (9 nM); HTRF signal; read-out: KRASG12C RAF Disruption Assay (IC50)
In short: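 The read-out is an HTRF 520/495 emission ratio, with IC50 taken from dose-response curves. Compound was first incubated for 20 min at room temperature with active-state KRAS G12C (GMPPNP, 5 nM) in Tris pH 7.5/NaCl/MgCl2/DTT/BSA. RAF1 RBD-GST (9 nM, 20 min) and SA-Tb (0.25 nM, 3 h) were added in turn.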

Sequence of GMPPNP-loaded KRAS G12C (P01116 1-188 isoform P01116-2 G12C): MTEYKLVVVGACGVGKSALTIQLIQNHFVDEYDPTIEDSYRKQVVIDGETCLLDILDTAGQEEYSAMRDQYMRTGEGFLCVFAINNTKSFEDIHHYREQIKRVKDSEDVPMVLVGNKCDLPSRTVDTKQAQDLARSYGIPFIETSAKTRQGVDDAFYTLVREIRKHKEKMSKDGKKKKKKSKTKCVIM

Row | pIC50 | Structure (SMILES)
1 | 7.40 | N#CC[C@H]1CN(c2nc(OC[C@@]34CCCN3C[C@H](F)C4)nc3c(F)c(-c4cccc(F)c4C(F)(F)F)ncc23)CCN1C(=O)/C(F)=C/c1nccs1 [Example 71, 2-((S)-1-((Z)-2-fluoro-3-(thiazol-2-yl)acryloyl)-4-(8-fluoro-7-(3-fluoro-2-(trifluoromethyl)phenyl)-2-(((2R, 7aS)-2-fluorotetrahydro-1H-pyrrolizin-7a(5H)-yl)methoxy)pyrido[4,3-d]pyrimidin-4-yl)piperazin-2-yl)acetonitrile]
2 | 6.96 | CCc1cccc2cccc(-c3ncc4c(N5CCN(C(=O)/C(F)=C/c6nccs6)[C@@H](CC#N)C5)nc(OC[C@@H]5CCCN5C)nc4c3F)c12 [Example 24, 2-((S)-4-(7-(8-ethylnaphthalen-1-yl)-8-fluoro-2-(((S)-1-methylpyrrolidin-2-yl)methoxy)pyrido[4,3-d]pyrimidin-4-yl)-1-((Z)-2-fluoro-3-(thiazol-2-yl)acryloyl)piperazin-2-yl)acetonitrile]
3 | 8.35 | C#Cc1c(F)ccc2cc(O)cc(-c3ncc4c(N5CCN(C(=O)/C(F)=C/c6ccccn6)C[C@@H]5C)nc(OC[C@@]56CCCN5C[C@H](F)C6)nc4c3F)c12 [Example 65, (Z)-1-((S)-4-(7-(8-ethynyl-7-fluoro-3-hydroxynaphthalen-1-yl)-8-fluoro-2-(((2R, 7aS)-2-fluorotetrahydro-1H-pyrrolizin-7a(5H)-yl)methoxy)pyrido[4,3-d]pyrimidin-4-yl)-3-methylpiperazin-1-yl)-2-fluoro-3-(pyridin-2-yl)prop-2-en-1-one]
4 | 4.77 | C#Cc1cccc2cccc(-c3ncc4c(N(C)C5CCN(C(=O)/C(F)=C/c6nccs6)CC5)nc(OC[C@@]56CCCN5C[C@H](F)C6)nc4c3F)c12 [Compound 132, (Z)-1-(4-((7-(8-ethynylnaphthalen-1-yl)-8-fluoro-2-(((2R, 7aS)-2-fluorotetrahydro-1H-pyrrolizin-7a(5H)-yl)methoxy)pyrido[4,3-d]pyrimidin-4-yl)(methyl)amino)piperidin-1-yl)-2-fluoro-3-(thiazol-2-yl)prop-2-en-1-one]
5 | 6.37 | N#CC[C@H]1CN(c2nc(OC[C@@]34CCCN3C[C@H](F)C4)nc3c(F)c(-c4csc5ccccc45)ncc23)CCN1C(=O)/C(F)=C/c1ccccn1 [Example 35, 2-((S)-4-(7-(benzo[b]thiophen-3-yl)-8-fluoro-2-(((2R, 7aS)-2-fluorotetrahydro-1H-pyrrolizin-7a(5H)-yl)methoxy)pyrido[4,3-d]pyrimidin-4-yl)-1-((Z)-2-fluoro-3-(pyridin-2-yl)acryloyl)piperazin-2-yl)acetonitrile]
6 | 5.28 | C#Cc1cccc2cccc(-c3ncc4c(N5C[C@H]6CN(C(=O)/C(F)=C/c7ccccn7)C[C@H]6C5)nc(OC[C@@]56CCCN5C[C@H](F)C6)nc4c3F)c12 [Compound 100, (Z)-1-((3aR, 6aS)-5-(7-(8-ethynylnaphthalen-1-yl)-8-fluoro-2-(((2R, 7aS)-2-fluorotetrahydro-1H-pyrrolizin-7a(5H)-yl)methoxy)pyrido[4,3-d]pyrimidin-4-yl)hexahydropyrrolo[3,4-c]pyrrol-2(1H)-yl)-2-fluoro-3-(pyridin-2-yl)prop-2-en-1-one]
7 | 6.08 | N#Cc1cccc2cccc(-c3ncc4c(N5CCN(C(=O)/C(F)=C/c6nccs6)CC5)nc(OC[C@@]56CCCN5C[C@H](F)C6)nc4c3F)c12 [Example 50, 8-(8-fluoro-4-(4-((Z)-2-fluoro-3-(thiazol-2-yl)acryloyl)piperazin-1-yl)-2-(((2R, 7aS)-2-fluorotetrahydro-1H-pyrrolizin-7a(5H)-yl)methoxy)pyrido[4,3-d]pyrimidin-7yl)-1-naphthonitrile]
8 | 4.92 | C#Cc1cccc2cccc(-c3ncc4c(N5C[C@H]6CN(C(=O)/C(F)=C/c7ncccn7)C[C@H]6C5)nc(OC[C@@]56CCCN5C[C@H](F)C6)nc4c3F)c12 [Compound 101, (Z)-1-((3aR, 6aS)-5-(7-(8-ethynylnaphthalen-1-yl)-8-fluoro-2-(((2R, 7aS)-2-fluorotetrahydro-1H-pyrrolizin-7a(5H)-yl)methoxy)pyrido[4,3-d]pyrimidin-4-yl)hexahydropyrrolo[3,4-c]pyrrol-2(1H)-yl)-2-fluoro-3-(pyrimidin-2-yl)prop-2-en-1-one]
9 | 6.52 | N#CC[C@H]1CN(c2nc(OC[C@@]34CCCN3C[C@H](F)C4)nc3c(F)c(N4CCOc5cccc(F)c54)ncc23)CCN1C(=O)/C(F)=C/c1nccs1 [Example 61, 2-((S)-1-((Z)-2-fluoro-3-(thiazol-2-yl)acryloyl)-4-(8-fluoro-7-(5-fluoro-2,3-dihydro-4H-benzo[b][1,4]oxazin-4-yl)-2-(((2R, 7aS)-2-fluorotetrahydro-1H-pyrrolizin-7a(5H)-yl)methoxy)pyrido[4,3-d]pyrimidin-4-yl)piperazin-2-yl)acetonitrile]
10 | 6.74 | C#Cc1cccc2cccc(-c3nc(OC)c4c(N5CCN(C(=O)/C(F)=C/c6nccs6)CC5)nc(OC[C@@]56CCCN5C[C@H](F)C6)nc4c3F)c12 [Compound 110, (Z)-1-(4-(7-(8-ethynylnaphthalen-1-yl)-8-fluoro-2-(((2R, 7aS)-2-fluorotetrahydro-1H-pyrrolizin-7a(5H)-yl)methoxy)-5-methoxypyrido[4,3-d]pyrimidin-4-yl)piperazin-1-yl)-2-fluoro-3-(thiazol-2-yl)prop-2-en-1-one]
11 | 7.80 | C#Cc1c(F)ccc2cc(O)cc(-c3ncc4c(N5C[C@H]6CC[C@@H](C5)N6C(=O)/C(F)=C/c5ncccn5)nc(OC[C@@]56CCCN5C[C@H](F)C6)nc4c3F)c12 [Compound 7, (Z)-1-((1R, 5S)-3-(7-(8-ethynyl-7-fluoro-3-hydroxynaphthalen-1-yl)-8-fluoro-2-(((2R, 7aS)-2-fluorotetrahydro-1H-pyrrolizin-7a(5H)-yl)methoxy)pyrido[4,3-d]pyrimidin-4-yl)-3,8-diazabicyclo[3.2.1]octan-8-yl)-2-fluoro-3-(pyrimidin-yl)prop-2-en-1-one]
12 | 6.44 | Cn1ncc2cccc(-c3ncc4c(N5CCN(C(=O)/C(F)=C/c6ccccn6)[C@@H](CC#N)C5)nc(OC[C@@]56CCCN5C[C@H](F)C6)nc4c3F)c21 [Example 51, 2-((S)-4-(8-fluoro-2-(((2R, 7aS)-2-fluorotetrahydro-1H-pyrrolizin-7a(5H)-yl)methoxy)-7-(1-methyl-1H-indazol-7-yl)pyrido[4,3-d]pyrimidin-4-yl)-1-((Z)-2-fluoro-3-(pyridin-2-yl)acryloyl)piperazin-2-yl)acetonitrile]
13 | 7.47 | N#CC[C@H]1CN(c2nc(OC[C@@]34CCCN3C[C@H](F)C4)nc3c(F)c(-c4cc(O)ccc4C(F)(F)F)ncc23)CCN1C(=O)/C(F)=C/c1ccccn1 [Compound 94, 2-((S)-4-(8-fluoro-2-(((2R, 7aS)-2-fluorotetrahydro-1H-pyrrolizin-7a(5H)-yl)methoxy)-7-(5-hydroxy-2-(trifluoromethyl)phenyl)pyrido[4,3-d]pyrimidin-4-yl)-1-((Z)-2-fluoro-3-(pyridin-2-yl)acryloyl)piperazin-2-yl)acetonitrile]
14 | 5.80 | C#Cc1cccc2c(F)ccc(-c3ncc4c(N5CCN(C(=O)/C(F)=C/c6ccccn6)CC5)nc(OC[C@@]56CCCN5C[C@H](F)C6)nc4c3F)c12 [Compound 87, (Z)-1-(4-(7-(8-ethynyl-4-fluoronaphthalen-1-yl)-8-fluoro-2-(((2R, 7aS)-2-fluorotetrahydro-1H-pyrrolizin-7a(5H)-yl)methoxy)pyrido[4,3-d]pyrimidin-4-yl)piperazin-1-yl)-2-fluoro-3-(pyridin-2-yl)prop-2-en-1-one]
15 | 6.10 | N#Cc1cccc2cccc(-c3ncc4c(N5CCN(C(=O)/C(F)=C/c6ccccn6)CC5)nc(OC[C@@]56CCCN5C[C@H](F)C6)nc4c3F)c12 [Example 49, 8-(8-fluoro-4-(4-((Z)-2-fluoro-3-(pyridin-2-yl)acryloyl)piperazin-1-yl)-2-(((2R, 7aS)-2-fluorotetrahydro-1H-pyrrolizin-7a(5H)-yl)methoxy)pyrido[4,3-d]pyrimidin-7yl)-1-naphthonitrile]
16 | 7.52 | C#Cc1c(F)ccc2cccc(-c3ncc4c(N(C)[C@@H]5CCN(C(=O)/C(F)=C/c6nccs6)C5)nc(OC[C@@]56CCCN5C[C@H](F)C6)nc4c3F)c12 [Compound 118, (Z)-1-((R)-3-((7-(8-ethynyl-7-fluoronaphthalen-1-yl)-8-fluoro-2-(((2R, 7aS)-2-fluorotetrahydro-IH-pyrrolizin-7a(5H)-yl)methoxy)pyrido[4,3-d]pyrimidin-4-yl)(methyl)amino)pyrrolidin-1-yl)-2-fluoro-3-(thiazol-2-yl)prop-2-en-1-one]
17 | 6.00 | C#Cc1cccc2c(F)ccc(-c3ncc4c(N5CCN(C(=O)/C(F)=C/c6ncccn6)CC5)nc(OC[C@@]56CCCN5C[C@H](F)C6)nc4c3F)c12 [Compound 88, (Z)-1-(4-(7-(8-ethynyl-4-fluoronaphthalen-1-yl)-8-fluoro-2-(((2R, 7aS)-2-fluorotetrahydro-1H-pyrrolizin-7a(5H)-yl)methoxy)pyrido[4,3-d]pyrimidin-4-yl)piperazin-1-yl)-2-fluoro-3-(pyrimidin-2-yl)prop-2-en-1-one]
18 | 6.44 | N#CC[C@H]1CN(c2nc(OC[C@@]34CCCN3C[C@H](F)C4)nc3c(F)c(-c4cc(F)ccc4C(F)(F)F)ncc23)CCN1C(=O)/C(F)=C/c1ccccn1 [Example 44, 2-((S)-1-((Z)-2-fluoro-3-(pyridin-2-yl)acryloyl)-4-(8-fluoro-7-(5-fluoro-2-(trifluoromethyl)phenyl)-2-(((2R, 7aS)-2-fluorotetrahydro-1H-pyrrolizin-7a(5H)-yl)methoxy)pyrido[4,3-d]pyrimidin-4-yl)piperazin-2-yl)acetonitrile]
